Common to all, as to assay type: cell-based
Experiment [1] relates to Escherichia coli (E. coli). The experiment is described as follows: Residual self-sanitizing activity on hard, non-porous glass surface per EPA Protocol 01-1A (manual wear cycles). The conditions noted are these: in CGB-D-100 disinfectant; lowest concentration tested. An excerpt: The purpose of this study is to test residual self-sanitizing activity of CGB-D-100 disinfectant per EPA protocol 01-1A, “Residual Self-Sanitizing Activity of Dried Chemical Residues on Hard, Non-Porous Surfaces.”
The scope of this study is to evaluate residual self-sanitizing activity of CGB-D-100 disinfectant with three different concentrations of CG-101, and to compare it to a marketed disinfectant (Microban® 24). Glass surface (microscope slides) will be used as a non-porous surface. Sterile saline solution will be used as a negative control and Microban® 24 will be used as the positive control. The method will simulate contact and touches by incorporating wear or wiping of the test surface as well as reinoculations of the test and control surfaces over 24 hours. The EPA protocol requires the use of an automated abrasion tester to simulate wear from wiping the surface. For the purposes of this protocol, abrasion or wear were be performed manually using cotton wipes.
First, the glass slides will be washed with a non-medical soap and water followed by cleaning with 70% alcohol and allowed to air dry. […]
Test product, negative control, and positive control will be applied to replicate test surfaces according to the product's Directions for Use or until surface is completely wet. […] The temperature and humidity in the lab will be recorded. […]

Experiment [2] can be described thus: Antimicrobial efficacy time kill test (ASTM E2783-11, neutralization per E1054-08). The protocol:
The purpose of this study was to test antimicrobial efficacy of 1%, 3%, and 5% CG-101 disinfectant formulations.
The study was performed using the following standard protocols: • I. American Society for Testing and Materials. Standard Test Methods for Evaluation of
Inactivators of Antimicrobial Agents; Designation: E1054-08 (Reapproved 2013). West Conshohocken, PA. • II. American Society for Testing and Materials. Standard Test Method for Assessment of Antimicrobial Activity for Water Miscible Compounds Using a Time-Kill Procedure. Designation: E2783-11 (Reapproved 2016). West Conshohocken, PA.
Initial neutralization testing confirmed that the test material was adequately neutralized at all concentrations tested. The time kill procedure included triplicate testing and all plate counts were performed in duplicate
CG-101 was added to water to form mixtures of 1 wt %, 3 wt %, and 5 wt % of CG-101.

Experiment [3] relates to E. coli. Briefly: Self-sanitizing activity of CG-101 in water and aqueous Poloxamer 407 on a surface with dried inoculum, 5 min contact. The protocol:
This study was conducted to test the residual self-sanitizing activity of samples containing 5% CG-101 in water, in 5% aqueous […], and in 10% aqueous Poloxamer 407. Parameters of the experiments are listed below:
• Water (Negative Control) • 5% CG-101 Aqueous Solution (Positive Control) • 5% CG-101 in 5% Poloxamer 407 Aqueous Solution • 5% CG-101 in 10% Poloxamer 407 Aqueous solution
• 10 μl of E. coli suspension was applied on the surface and dried over 30 min • 1 ml of each test sample and control was applied on the surface with a dry inoculum • Contact time of 5 min was used • Neutralization was performed immediately after the contact time • 100 μl from each solution was plated onto agar plates and transferred to incubator set at 37 C for 48 hr. • Bacterial growth was observed after 48 hr. In the incubator.

Setting [4] is: 1 wt % CG-101 in water, 1 minute.
Where [5] appears, read: 1 wt % CG-101 in water, 5 minutes.
Where [6] appears, read: 1 wt % CG-101 in water, at seconds.
Where [7] appears, read: 3 wt % CG-101 in water, 1 minute.
[8] abbreviates: 3 wt % CG-101 in water, 5 minutes.
Setting [9] is: 3 wt % CG-101 in water, at seconds.
The mark [10] stands for this setting: 5 wt % CG-101 in water, 1 minute.
The mark [11] stands for this setting: 5 wt % CG-101 in water, 5 minutes.
The mark [12] stands for this setting: 5 wt % CG-101 in water, at seconds.

Some results are limits rather than exact numbers.

Take Choline geranate [CG-101]: the “concentration of CG-101 sufficient to kill all applied bacteria and to preserve the glass surface for 24 h” value in experiment [1] worked out at 2%. Besides, the killing in experiment [2] (setting [4]), in experiment [2] (setting [5]), in experiment [2] (setting [6]), in experiment [2] (setting [7]), in experiment [2] (setting [8]) and in experiment [2] (setting [9]) was 99.9% each time. Besides, the killing in experiment [2] (setting [10]), in experiment [2] (setting [11]) and in experiment [2] (setting [12]) was 99.9% in each case. The “log decrease in CFU” value in experiment [2] (setting [4]), in experiment [2] (setting [5]), in experiment [2] (setting [6]), in experiment [2] (setting [7]), in experiment [2] (setting [8]) and in experiment [2] (setting [9]) was greater than 3 log in each case. For the same substance, the “log decrease in CFU” value in experiment [2] (setting [10]), in experiment [2] (setting [11]) and in experiment [2] (setting [12]) was greater than 3 log in each case. Also, the “bacterial growth on TSA plates” value in experiment [3] (5% CG-101 in 5% aqueous Poloxamer 407, 48 hr incubation) is given as “No bacterial growth”; in experiment [3] (5% CG-101 in 10% aqueous Poloxamer 407, 48 hr incubation), “No bacterial growth”; in experiment [3] (5% CG-101 in water (positive control of this study), 48 hr incubation), “No bacterial growth”.

The record behind these values is US20230413812A1, “SANITIZING COMPOSITIONS CONTAINING IONIC LIQUID” (CAGE BIO, INC., priority 2020, published 2023).
